Test results taken from patent US20110028719A1, “SCREENING METHODS FOR AMYLOID BETA MODULATORS” (priority 2006, published 2011).
Structures can show the parent of a compound that is named as a salt.

Molecular target: immobilized Aβ fibrils (Homo sapiens, UniProt P05067)
Test: FAC-MS assay of free Aβ monomer (indicator) binding to immobilized Aβ fibrils in the presence of test compounds
Settings: FAC-MS % shift of breakthrough time of free Aβ1-42 monomer (1 μM) on immobilized Aβ fibrils; compounds 1-10 μM in 20 mM NH4OAc, 1% DMSO; void marker M3

Chain of immobilized Aβ fibrils (P05067 672-713 limits assumed): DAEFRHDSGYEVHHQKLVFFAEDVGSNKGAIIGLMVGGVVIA

Compound	% of Shift
1,2,5,6-bis-O-(1-Methylethyldene)-3-methyl-1D-chiro-inositol [Compound 53234-7, reference compound]	4%
COC1C(O)C2OC3(CCCCC3)OC2C2OC3(CCCCC3)OC12 (racemic) [Compound 53226-6, 1,2,3,4-DL-O-cyclohexyldene-5-O-methyl-L-chiro-inositol, reference compound]	2%
O[C@H]1[C@H](O)[C@@H](O)[C@H](O)[C@@H](O)[C@@H]1O [AZD-103, scyllo-inositol, reference compound]	84%
OC1C(O)C(O)C(O)C(O)C1O (stereo not drawn) [Chiro, chiro-inositol, reference compound]	2%
[H]/N=C(/N)N[C@H]1[C@H](O)[C@@H](O)[C@H](O[C@@H]2O[C@@H](C)[C@](O)(C=O)[C@H]2O[C@@H]2O[C@@H](CO)[C@H](O)[C@@H](O)[C@@H]2NC)[C@@H](N/C(N)=N\[H])[C@@H]1O [Compound 56501, Streptomycin sulfate, reference compound]	1%
O=C(O)[C@]1(O)C[C@@H](O)[C@@H](O)[C@H](O)C1 [Compound 138622, 1R,3R,4R,5R-Quinic acid, reference compound]	3%
CC(C)C(=O)OC1C(O)C(OC(=O)C(C)C)C(OC(=O)C(C)C)C(OC(=O)C(C)C)C1OC(=O)C(C)C (stereo not drawn) [Compound 37387001, 2-hydroxy-3,4,5,6-tetrakis(isobutyryloxy)cyclohexyl 2-methylpropanoate]	4%
CC(C)(C)C(=O)OC1C(O)C(OC(=O)C(C)(C)C)C(OC(=O)C(C)(C)C)C(OC(=O)C(C)(C)C)C1OC(=O)C(C)(C)C (stereo not drawn) [Compound 37387002, 2,3,4,5-tetrakis[(2,2-dimethylpropanoyl)oxy]-6-hydroxycyclohexyl pivalate]	5%
CC(=O)OC1C(OC(=O)C(C)(C)C)C(OC(=O)C(C)(C)C)C(OC(C)=O)C(OC(=O)C(C)(C)C)C1OC(=O)C(C)(C)C (stereo not drawn) [Compound 37387004, 2,5-bis(acetoxy)-3,4,6-tris[(2,2-dimethylpropanoyl)oxy]cyclohexyl pivalate]	4%
CCC(=O)OC1C(OC(=O)CC)C(OC(=O)CC)C(OC(=O)CC)C(OC(=O)CC)C1OC(=O)CC (stereo not drawn) [Compound 37387006, 2,3,4,5,6-pentakis(propionyloxy)cyclohexyl propionate]	4%
CC(C)C(=O)OC1C(OC(=O)C(C)C)C(OC(=O)C(C)C)C(OC(=O)C(C)C)C(OC(=O)C(C)C)C1OC(=O)C(C)C (stereo not drawn) [Compound 37387007, 2,3,4,5,6-pentakis(isobutyryloxy)cyclohexyl 2-methylproanoate]	5%
CC(C)(C)C(=O)OC1C(OC(=O)C(C)(C)C)C(OC(=O)C(C)(C)C)C(OC(=O)C(C)(C)C)C(OC(=O)C(C)(C)C)C1OC(=O)C(C)(C)C (stereo not drawn) [Compound 37387008, 2,3,4,5,6-pentakis[(2,2-dimethylpropanoyl)oxy]cyclohexyl pivalate]	4%
CC(C)CC(=O)OC1C(O)C(OC(=O)CC(C)C)C(OC(=O)CC(C)C)C(OC(=O)CC(C)C)C1OC(=O)CC(C)C (stereo not drawn) [Compound 37387009, 2-hydroxy-3-4,5,6-tetrakis[(3-methylbutanoyl)oxo]cyclohexyl 3-methylbutanoate]	2%
O=C(OC1C(O)C(OC(=O)c2ccccc2)C(OC(=O)c2ccccc2)C(OC(=O)c2ccccc2)C1OC(=O)c1ccccc1)c1ccccc1 (stereo not drawn) [Compound 37387010, 2,3,5,6-tatrakis(benzoyloxy)-4-hydroxycyclohexyl benzoate]	2%
CC(=O)OC1C(OC(=O)CC(C)C)C(OC(=O)CC(C)C)C(OC(=O)CC(C)C)C(OC(=O)CC(C)C)C1OC(=O)CC(C)C (stereo not drawn) [Compound 37387013, 2-(acetyloxy)-3,4,5,6-tetrakis[(3-methylbutanoyl)oxy]cyclohexanyl 3-methylbutanoate]	3%
OC1[C@@H](O)[C@H](O)C(O[C@H]2OC[C@H](O)[C@H](O)[C@H]2O)[C@H](O)[C@H]1O (stereo partly drawn) [Compound A-9826, 2-O-b-L-Arabinopyranosyl myo-inositol, reference compound]	3%
O[C@H]1[C@H](O)[C@@H](O)[C@@H]2O[C@@H]2[C@@H]1O [Compound C5424, Conduritol B epoxide, reference compound]	1%
O=C(/C=C/c1ccc(O)c(O)c1)O[C@@H]1C[C@](O)(C(=O)O)C[C@@H](O)[C@H]1O [Compound C-3878, Chlorogenic acid, reference compound]	2%

Same assay, conditions: FAC-MS screen; shift of free Aβ monomer breakthrough on immobilized Aβ fibrils in presence of compound; scale not given

Compound	Aβ Shift
CC1CCC(C(C)C)C(OCC(O)CN2CCOCC2)C1 (stereo not drawn)	1
CCCC1CCC(c2ccc(C(C)=O)cc2)CC1C (stereo not drawn)	1
CC(C)C1CCC(C)C(OC(=O)C2C3CCCCC32)C1 (stereo not drawn)	1
CC(=O)OCC12COC(C)(CC1C)CC2C (stereo not drawn)	1
CCC(=O)OC1CCC(C)CC1C(C)(C)C(C)C (stereo not drawn)	1
O=C(O)C1(O)CC(O)C(O)C(O)C1 (stereo not drawn)	1
CC1CCC(C(C)C)C(OC(=O)CCc2ccccc2)C1 (stereo not drawn)	1
CC1C2CC3(C)CC1(C)CC(C1(C)CC(=O)O1)(C2)C3 (stereo not drawn)	1
C/C(=N\O)C(=O)OC1CC(C)CCC1C(C)C (stereo not drawn)	1
CC12CC3CC(C)(C1)CC(CNC(=O)c1ccccc1)(C3)C2	1
CC12CC3(C)CC(C)(C1)CC(C(N)=O)(C2)C3	1
COC(=O)C12CC3CC(C)(CC(C)(C3)C1)C2	1
CC12CC3CC(C)(C1)CC(C(=O)NO)(C3)C2	1
CC12CC3CC(CO)(C1)CC(c1ccccc1)(C3)C2 (stereo not drawn)	1
CC12CC3CC(C)(C1)CC(C(N)=O)(C3)C2	1
CC12CC3CC(C)(C1)CC(C(=O)NNC(N)=O)(C3)C2	1
COC(=O)C12CC3(C)CC(C)(CC(C)(C3)C1)C2	1
CN(C)C(=O)C12CC3(C)CC(C)(CC(C)(C3)C1)C2	1
CC(=O)NC12CC3(C)CC(C)(C1)CC(NC(C)=O)(C3)C2	1
CC(=O)NC12CC3CC(C)(C1)CC(NC(C)=O)(C3)C2	1
CCC12CC3CC(O)(C1)CC(C(=O)O)(C3)C2 (stereo not drawn)	1
CC12CC3CC(C)(C1)CC(C(=O)CCC(=O)O)(C3)C2	1
CC(=O)NC12CC3(C)CC(C)(CC(O)(C3)C1)C2	1

Compound	Aβ Shift
CC12CC3CC(O)(C1)CC(C(=O)O)(C3)C2 (stereo not drawn)	1
CCN1CCC(NC2CCCC(C)C2C)CC1 (stereo not drawn)	1
CC(CCc1ccc(O)cc1)NC1CCCC(C)C1C (stereo not drawn)	1
CC12CC3CC(C)(C1)CC(C(=O)Nc1nnn[nH]1)(C3)C2	1
Cc1ccc(C(C)(C)CC(C)NC2CCCC(C)C2C)o1 (stereo not drawn)	1
Cc1cc(NC(=O)C23CC4CC(C)(CC(C)(C4)C2)C3)no1	1
CC12CC3CC(C)(C1)CC(C(=O)NC(C)(C)CO)(C3)C2	1
CC12CC3CC(C)(C1)CC(C(=O)Nc1nccs1)(C3)C2	1
C=CCNC(=O)C12CC3(C)CC(C)(CC(C)(C3)C1)C2	1
CC12CC3(C)CC(C)(C1)CC(C(=O)NC(C)(C)CO)(C2)C3	1
CN(C)CCOC(=O)C12CC3(C)CC(C)(CC(C)(C3)C1)C2	2
CC1CCC(C(C)C)C(OC(=O)c2ccco2)C1 (stereo not drawn)	2
O=C(O)C12CC3CC(C(=O)O)(C1)CC(C(=O)O)(C3)C2	2
CC1CCCC(N/C=C2\C(=O)Nc3ccccc32)C1C (stereo not drawn)	2
CC1CCC(COC(=O)C[N+]2(C)CCCCC2)C(C)C1 (stereo not drawn)	2
CC1CCC(C(C)C)C(OCC[N+](C)(C)C)C1 (stereo not drawn)	2
CC1CCC(C(C)C)C(OCCC[N+](C)(C)C)C1 (stereo not drawn)	2
CC[N+](CC)(CC)CCCOC1CC(C)CCC1C(C)C (stereo not drawn)	2
CC1CCC(C(C)C)C(OC(=O)NC(=O)C(F)(F)F)C1 (stereo not drawn)	2
CC1CCCC(N2CNC(=S)NC2)C1C (stereo not drawn)	2
CC1CCCC(N2CNc3nc4ccccc4n3C2)C1C (stereo not drawn)	2
O=C(O)C1C2CC3C(OC(=O)C31)C2Cl (stereo not drawn)	2
CC1CC(NN(C)C)C(C#N)(C#N)C(C)C1(C#N)C#N (stereo not drawn)	2

Compound	Aβ Shift
CC12CC3CC(C)(C1)CC(CN)(C3)C2	2
CC12CC3CC(C)(C1)CC(N)(C3)C2	2
CC1CCCC(NC(=O)c2n[nH]c(=O)c3ccccc23)C1C (stereo not drawn)	2
CC1CC(NS(=O)(=O)c2cccs2)CC(C)(C)C1 (stereo not drawn)	2
CC1CCCC(NC(=O)Cc2cn(C)c3ccccc23)C1C (stereo not drawn)	2
CC12CC3(C)CC(N)(C1)CC(C(=O)O)(C2)C3	2
CC1CCCC(NC(=O)c2cc3sccc3n2C)C1C (stereo not drawn)	2
CC1CCCC(NC(=O)c2csc3c2CCCC3)C1C (stereo not drawn)	2
CC1CCCC(NC(=O)Nc2cccs2)C1C (stereo not drawn)	2
CC1CCCC(NC(=O)Cn2cc3c(n2)CCCC3)C1C (stereo not drawn)	1
CC1CCCC(NC(=O)c2ccc3snnc3c2)C1C (stereo not drawn)	1
Cc1nn(CC(=O)NC2CCCC(C)C2C)c2ccccc12 (stereo not drawn)	1
CC(=O)c1[nH]c(C)c(C(=O)NC2CCCC(C)C2C)c1C (stereo not drawn)	1
CC1CCCC(n2c(=S)[nH]c3ccccc3c2=O)C1C (stereo not drawn)	1
CC1CCCC(n2cnc3cc(C(=O)O)ccc32)C1C (stereo not drawn)	1
CC1CCCC(NC(=O)c2cc3c(s2)CSC3)C1C (stereo not drawn)	1
Cc1cc(C(=O)NC2CCCC(C)C2C)c2ccccc2n1 (stereo not drawn)	1
CC1CCCC(NC(=O)c2ccccc2C(=O)O)C1C (stereo not drawn)	2
CCC1CC2(C(=O)NCc3ccco3)CC3(C)CC3(C1)C2 (stereo not drawn)	1
Nc1ncnc2c1ncn2C1CCC(CO)C(O)C1 (stereo not drawn)	1
COC(=O)C1(C)CC2(C)CC(C)(C1)C(=O)N(C)C2=O (stereo not drawn)	1
CC1CCC(C(C)C)C(OC(=O)CSC#N)C1 (stereo not drawn)	1

Same assay, conditions: pretreatment of column with 1 to 10 μM; FIG. 5

Compound	effect of pretreatment of immobilized Aβ aggregates
O[C@H]1[C@H](O)[C@@H](O)[C@H](O)[C@@H](O)[C@@H]1O [AZD-103, scyllo-inositol, reference compound]	prevents binding and/or breaks down of Aβ fibrils
